Data published in patent US20250136617A1 (The Regents of the University of Colorado, A Body Corporate, priority 2022, published 2025).
Values belong to the molecule of their own block, whether it stands above or below them.

Legend:
Format in all cases: cell-based
[1] = biological target: T1, CXCR4 (Homo sapiens, UniProt P61073); assay: Adenylate cyclase (cAMP inhibition) assay, thiadiazine scaffold, CHO-CXCR4-cAMP cells; set-up: host or cells: CHO-K1
Method: Tango™ CXCR4-bla U2OS Cells (Invitrogen; K1779) were used for (β-arrestin recruitment assays and maintained as a monolayer culture in McCoy's 5a (Corning; 10-050-CV) supplemented with 10% dialyzed Fetal Bovine Serum (Gibco; 26400-044), 0.1 mM MEM Non-essential amino acids solution, 25 mM HEPES solution (Corning; 25-060-CI), 1 mM Sodium Pyruvate (Gibco; 11360-070), 200 μg/mL Zeocin selection reagent (Gibco; R25001), 50 μg/mL Hygromycin B (Gibco, 10687010), and 100 μg/mL Geneticin (G418 Sulfate) (Gibco, 10131035). U2OS cells were subcultured twice weekly by 0.05% Trypsin-EDTA treatment (Corning; 25-051-CI) and passaged to continue exponential growth phase for cell signaling assays. All cell cultures were maintained in cell culture incubators at 37° C. with 5% CO2. CHO-K1 CXCR4 cells (DiscoverX, Fremont, CA, USA) were used for cAMP inhibition assays and maintained as a monolayer culture in DMEM/F12 (Corning; 10-091-CV) supplemented with 10% Fetal Bovine Serum (Corning; 35-011-CV) and 100IU penicillin, […] streptomycin sulfate (Corning; 30-002-CI) and […] G418 (Gibco; 101310350. Cells were subculture 2 times weekly by o.o5% Trypsin-EDTA treatment (Corning; 25-051-CI) and passaged to continue exponential growth phase for cell signaling assays. All cell cultures were maintained in cell culture incubators at 37° C. with 5% CO2.CEM-CCRF cells (ATCC CCL-119) were used in both the migration and calcium flux assays and were cultured in growth media consisting of RPMI 1640 (Corning; 10-040-CV) supplemented with 10% Fetal Bovine Serum (Corning; 35-011-CV), and 100 IU penicillin, […] streptomycin sulfate (Corning; 30-002-CI). […] Cells were harvested for use in migration and calcium flux assays at 2.0×10^6 cells/mL to 2.5×10^6 cells/mL and resuspended in assay media to desired density for respective experiments.
Compounds and DMSO normalization to 0.5% were dispensed using the TECAN D300e digital dispenser into the wells of a 384-well white wall clear-bottom assay plate (Griener 781983). […] This cell suspension was dispensed at 20 μL per well into the assay plate and allowed to incubate overnight for approximately 18 hrs with compounds in cell culture incubator at 37° C. with 5% CO2. Following incubation, DMEM/F12 media was gently removed, then the Lance Ultra cAMP Kit (Perkin Elmer; TRF0263) was performed according to the supplier guidelines. […] Time-resolved fluorescence was measured on the BMG LABTECH CLARIOstar Plus (BMG LABTECH Inc., Cary, NC) using the Lance Ultra cAMP kit guidelines for excitation and emission. […]

[2] = biological target: T1, CXCR4; assay: β-arrestin recruitment, 384-well, Tango CXCR4-bla U2OS cells, normalized to SDF-1α; set-up: host or cells: U2OS; details: normalized to SDF-1α; read-out: ß-arrestin recruitment EC50
Method: Tango™ CXCR4-bla U2OS Cells (Invitrogen; K1779) were used for (β-arrestin recruitment assays and maintained as a monolayer culture in McCoy's 5a (Corning; 10-050-CV) supplemented with 10% dialyzed Fetal Bovine Serum (Gibco; 26400-044), 0.1 mM MEM Non-essential amino acids solution, 25 mM HEPES solution (Corning; 25-060-CI), 1 mM Sodium Pyruvate (Gibco; 11360-070), 200 μg/mL Zeocin selection reagent (Gibco; R25001), 50 μg/mL Hygromycin B (Gibco, 10687010), and 100 μg/mL Geneticin (G418 Sulfate) (Gibco, 10131035). U2OS cells were subcultured twice weekly by 0.05% Trypsin-EDTA treatment (Corning; 25-051-CI) and passaged to continue exponential growth phase for cell signaling assays. All cell cultures were maintained in cell culture incubators at 37° C. with 5% CO2. CHO-K1 CXCR4 cells (DiscoverX, Fremont, CA, USA) were used for cAMP inhibition assays and maintained as a monolayer culture in DMEM/F12 (Corning; 10-091-CV) supplemented with 10% Fetal Bovine Serum (Corning; 35-011-CV) and 100IU penicillin, […] streptomycin sulfate (Corning; 30-002-CI) and […] G418 (Gibco; 101310350. Cells were subculture 2 times weekly by o.o5% Trypsin-EDTA treatment (Corning; 25-051-CI) and passaged to continue exponential growth phase for cell signaling assays. All cell cultures were maintained in cell culture incubators at 37° C. with 5% CO2.CEM-CCRF cells (ATCC CCL-119) were used in both the migration and calcium flux assays and were cultured in growth media consisting of RPMI 1640 (Corning; 10-040-CV) supplemented with 10% Fetal Bovine Serum (Corning; 35-011-CV), and 100 IU penicillin, […] streptomycin sulfate (Corning; 30-002-CI). Cells were maintained in suspension and sub-cultured twice weekly to maintain cell densities between 0.8×10^6 cells/mL and 2.5×10^6 cells/mL to maintain exponential growth phase. Cells were harvested for use in migration and calcium flux assays at 2.0×10^6 cells/mL to 2.5×10^6 cells/mL and resuspended in assay media to desired density for respective experiments.
Tango™ CXCR4-bla U2OS Cells were resuspended in assay media consisting of DMEM (Corning; Corning, NY) supplemented with 1% dialyzed Fetal bovine serum, 0.1 mM MEM Non-essential amino acids solution, 25 mM HEPES solution (Corning; Corning, NY), 1 mM Sodium Pyruvate and 100 IU penicillin, […] streptomycin sulfate (Corning; Corning, NY) at a density of 3.0×10^5 cells/ml. Assay media FreeStyle 293 expression Medium (Gibco; 12338018) was used for testing the thiadiazine scaffold CXCR4 agonists. Cells suspension was dispensed at 30 μl per well into assay plate and incubated overnight in a cell culture incubator at 37° C. with 5% CO2. […] Following overnight incubation, LiveBlazer FRET B/G Loading Kit (Invitrogen; K1095) working reagent was prepared according to supplier guidelines and 6 μl of solution was dispensed into each well; 8 μL of solution for testing the thiadiazine scaffold CXCR4 agonists. Assay plate was covered and incubated in a dark place for two hours and Fluorescence Intensity was measured using the BMG LABTECH CLARIOstar Plus (BMG LABTECH Inc., Cary, NC) according to the LiveBlazer FRET B/G Loading Kit excitation and emission measurement guidelines.
Results are expressed as mean±SD for 3 to 5 independent experiments. Statistically significant differences in gene expression between two groups were assessed by Student's T-test, ANOVA with an appropriate post hoc test was be used for multiple comparisons. P<0.05 was considered to be statistically significant. All concentration response curves were analyzed to determine EC50 and Emax using the following equation:
where Y is the normalized response (0-100%), X is the log of concentration of compound tested, and the Hill slope is equal to 1.0% and 100% activity are specific to each assay. […]

[3] = biological target: T1, CXCR4; assay: primary 1536 w β-arrestin recruitment assay (FRET, β-lactamase reporter) in U2OS cells overexpressing CXCR4; set-up: host or cells: U2OS; details: for Emax: U2OS, read-out: CXCR4 b-arrestin Emax (%); for activity in primary β-arrestin assay: SAR discussion
Method: In an effort to identify CXCR4 activators from the NIH Molecular Library Small Molecule Repository (MLSMR), a primary screening assay was developed to measure β-arrestin recruitment to the activated G-protein coupled receptor by Florescence Resonance Energy Transfer (FRET) in U2OS cells overexpressing the CXCR4 receptor engineered with a β-lactamase (bla) reporter system (Invitrogen cat #K1779). CXCR4-bla cells plated in 1536 w were stimulated in the presence of 10 uM compound concentration. […] Using this approach, 370,620 compounds from the NIH MLSMR were successfully screened and 303 hits were identified (hit rate=0.08%; Z′=0.83). […] These compounds were graded according to activity and structure resulting in 86 compounds that met criteria as potential CXCR4 agonists for further characterization.
Chemical stability, synthetic tractability, solubility and complete dose response and potency criteria led to the prioritization of the 5-aryl-2-cyclopropyl oxazole scaffold, represented by primary hit Compound 2 (Table 1). Early structure-activity relationship was established around the 5-aryl-2-cyclopropyl oxazole core with commercially available analogs with diverse substituents in the sulfonanilide ring of the scaffold. […] Keeping the 2-OMe substituent constant a small set of electron withdrawing and electron rich substituents at the 5-position of the anilide ring were screened (entries 16-19).

[4] = tested on: CEM-CCRF human lymphoblast cells; assay: Transwell migration assay in CEM-CCRF lymphoblasts
Method: Thus, to confirm CXCR4 functional activity, UCUF-728 was evaluated in a 96 w transwell migration assay in CEM human lymphoblast cells.
CEM-CCRF (ATCC CCL-119) were suspended in RPMI 1640 (Corning; 10-040-CV) at 5.0×10^5 cells/mL and allowed to incubate in cell culture incubator at 37° C. with 5% CO2 for one hour. […] Plates were reassembled and placed in a cell culture incubator at 37° C. with 5% CO2 for three hours. After incubation, Multi-Screen plate was disassembled and 100 μl of solution was collected from compound receiver tray and transferred to 96 well luminescent plate (Thermo Scientific; 265302) and an equal volume of ATPLite Istep luminescence reagent (Perkin Elmer, Waltham, MA; 6016731) was added to each well. Luminescence was measured using the CLARIOstar Plus (BMG LABTECH Inc., Cary, NC).

[5] = biological target: T1, CXCR4; assay: cAMP signaling assay, oxazole scaffold (forskolin-induced adenylate cyclase, CHO-K1 CXCR4 cells); set-up: host or cells: CHO-K1
Method: The CXCR4 receptor is a G-protein coupled receptor (GPCR) coupled to the Gi class, whose primary role is inhibition of adenylate cyclase. The ability of UCUF-728 to induce Gi-mediated cAMP-inhibitory cellular response was tested.
Forskolin at final concentration of […] was added to all wells using the TECAN dispenser. […] PathHunter CHO-K1 CXCR4 cells (DiscoverX, Fremont, CA) were added to compounds at 3,000 cells/well, centrifuged at 1000 rpm for 30 sec and incubated for 30 min at room temperature. DMSO (Sigma Aldrich, St. Louis, MO) was normalization to 0.5%. 5 μL of 4× Eu-cAMP tracer working solution was added to all wells followed by addition of 5 μL of 4× Ulight-anti-cAMP working solution to all wells. Plates were centrifuged at 1000 rpm for 1 min and incubated for 1 hr at room temperature then read using CLARIOstar Plus (BMG LABTECH Inc., Cary, NC) Lance CAMP protocol.

T1 sequence (P61073 whole entry): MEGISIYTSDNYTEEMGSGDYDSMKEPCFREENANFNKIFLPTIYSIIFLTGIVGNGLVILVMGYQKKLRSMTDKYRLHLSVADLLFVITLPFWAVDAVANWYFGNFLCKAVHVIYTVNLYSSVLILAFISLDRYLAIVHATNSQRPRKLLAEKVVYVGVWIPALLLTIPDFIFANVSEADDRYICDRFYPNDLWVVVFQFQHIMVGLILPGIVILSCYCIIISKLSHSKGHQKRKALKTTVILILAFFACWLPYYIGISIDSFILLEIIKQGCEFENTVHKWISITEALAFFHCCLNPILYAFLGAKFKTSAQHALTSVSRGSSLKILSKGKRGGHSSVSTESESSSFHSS

Molecule: CCOc1ccccc1-c1nnc2n1N=C(c1ccc(N3CCCC3)cc1)CS2 [Entry 23]
EC50 ([1]; inhibition of forskolin-stimulated cAMP): 50 nM | EC50 [2]: 20 nM

Molecule: CCc1ccccc1NS(=O)(=O)c1ccc(-c2cnc(C3CC3)o2)cc1 [compound 3]
Emax [3]: 38%

Molecule: CCOc1ccccc1NS(=O)(=O)c1ccc(-c2cnc(C3CC3)o2)cc1 [compound 5]
EC50 ([3]; 1536 w screening platform): 1000 nM | Emax [3]: 46%

Molecule: Cc1ccc(NS(=O)(=O)c2ccc(-c3cnc(C4CC4)o3)cc2)c(C)c1 [compound 12]
Emax [3]: 38%

Molecule: Cc1ccc(C)c(NS(=O)(=O)c2ccc(-c3cnc(C4CC4)o3)cc2)c1 [compound 13]
activity in primary β-arrestin assay [3]: most active among the dimethyl analogs | Emax [3]: 42%

Molecule: Cc1cc(C)cc(NS(=O)(=O)c2ccc(-c3cnc(C4CC4)o3)cc2)c1 [compound 15]
Emax [3]: 39%

Molecule: COc1ccc(NS(=O)(=O)c2ccc(-c3cnc(C4CC4)o3)cc2)cc1OC [compound 20]
activity in primary β-arrestin assay [3]: inactive or had marginal activity

Molecule: CCOc1ccccc1-c1nnc2n1N=C(c1ccc(N3CCCC3=O)cc1)CS2 [compound 63]
migration activity (words) [4]: partial agonist activity | cAMP inhibition activity [1]: partial agonist activity

Second part, led by results:

Emax [3]: 38%
Molecule: CCOc1ccc(NS(=O)(=O)c2ccc(-c3cnc(C4CC4)o3)cc2)cc1 [compound 9]

Emax [3]: 40%
Molecule: Cc1cccc(NS(=O)(=O)c2ccc(-c3cnc(C4CC4)o3)cc2)c1C [compound 10]

activity in primary β-arrestin assay [3]: most active among the dimethyl analogs | Emax [3]: 45%
Molecule: Cc1cccc(C)c1NS(=O)(=O)c1ccc(-c2cnc(C3CC3)o2)cc1 [compound 14]

Emax [3]: 42%
Molecule: COc1ccc(F)cc1NS(=O)(=O)c1ccc(-c2cnc(C3CC3)o2)cc1 [compound 17]

IC50 ([1]; CXCR4 overexpressing CHO cells, read-out: IC50, inhibition of forskolin-stimulated cAMP production): 1.5 nM | log IC50, inhibition of forskolin-stimulated cAMP production ([1]; log value): −8.9±0.1 M
Molecule: SDF-1α
cAMP signaling / forskolin-induced adenylate cyclase [5]: inhibited forskolin-induced adenylate cyclase
